Measured values published in patent US20250339567A1, “COMPOUNDS WITH IMPROVED PHARMACOKINETICS FOR IMAGING AND THERAPY OF CANCER” (priority 2019, published 2025).
Starred links: 1 amine or outer side, 2 acyl side, 3 side chain; linkers in the order of their positions; H or OH if unused. Non-standard residues stand in square brackets, D forms with d. Residues, ends and D or L forms follow the SMILES beside them. *: point of attachment. DOTA = O=C(O)CN1CCN(CC(=O)O)CCN(CC(=O)*)CCN(CC(=O)O)CC1; Sta = CC(C)C[C@H](N)[C@@H](O)CC(=O)O; Bta = N[C@@H](Cc1csc2ccccc12)C(=O)O; Gly(cPent) = N[C@H](C(=O)O)C1CCCC1; Trx = NC[C@H]1CC[C@H](C(=O)O)CC1; X1 = O=C(CN1CCC(N[*:1])CC1)[*:2]; Chg = N[C@H](C(=O)O)C1CCCCC1; hSer = N[C@@H](CCO)C(=O)O; Nle = CCCC[C@H](N)C(=O)O; βAla = NCCC(=O)O; Sar = CNCC(=O)O

test: Plasma studies: metabolic stability in vitro in human plasma (radio RP-HPLC); assay type: in vitro ADME
Description: Metabolic stability in vitro was determined applying a procedure published by Linder et al. that was slightly modified. Immediately after labeling, human (200 μL) or murine (100 μL) plasma was added and the mixture was incubated at 37° C. for 72±2 h (or 6±0.5 h). Proteins were precipitated by treatment with ice-cold EtOH (150 μL [human], 100 μL [murine]) and ice-cold MeCN (450 μL [human], 300 μL [murine]), followed by centrifugation for 20 min at 13000 rpm. The supernatants were decanted and further analyzed using radio RP-HPLC. […]

Point of comparison: CC(C)C[C@H](NC(=O)C[C@H](O)[C@H](CC(C)C)NC(=O)[C@H](Cc1c[nH]cn1)NC(=O)CNC(=O)[C@@H](NC(=O)[C@H](C)NC(=O)[C@H](Cc1csc2ccccc12)NC(=O)[C@H](CCC(N)=O)NC(=O)[C@@H](Cc1ccccc1)NC(=O)CN1CCC(NC(=O)CN2CCN(CC(=O)O)CCN(CC(=O)O)CCN(CC(=O)O)CC2)CC1)C1CCCC1)C(N)=O [DOTA-[Bta^8, Cpg^10]MJ9] ({DOTA}-[X1][dF]Q[Bta]A[Gly(cPent)]GH[Sta]L-NH2), “Amount of intact tracer after incubation in human plasma for 72 ± 2 h (n = 2)” value 2.2 ± 0.5. Against it:
- CC(C)C[C@H](NC(=O)C[C@H](O)[C@H](CC(C)C)NC(=O)[C@H](Cc1c[nH]cn1)NC(=O)CNC(=O)[C@@H](NC(=O)[C@H](C)NC(=O)[C@H](Cc1csc2ccccc12)NC(=O)[C@H](CCC(N)=O)NC(=O)[C@@H](Cc1ccccc1)NC(=O)CN1CCC(NC(=O)CN2CCN(CC(=O)O)CCN(CC(=O)O)CCN(CC(=O)O)CC2)CC1)C1CCCCC1)C(N)=O [DOTA-[Bta^8, Chg^10]MJ9] ({DOTA}-[X1][dF]Q[Bta]A[Chg]GH[Sta]L-NH2) — within error, 2.5 ± 1.0
- CC(C)C[C@H](NC(=O)C[C@H](O)[C@H](CC(C)C)NC(=O)[C@H](Cc1c[nH]cn1)NC(=O)CN(C)C(=O)[C@@H](NC(=O)[C@H](C)NC(=O)[C@H](Cc1csc2ccccc12)NC(=O)[C@H](CCC(N)=O)NC(=O)[C@@H](Cc1ccccc1)NC(=O)CN1CCC(NC(=O)CN2CCN(CC(=O)O)CCN(CC(=O)O)CCN(CC(=O)O)CC2)CC1)C(C)C)C(N)=O [DOTA-[Bta^8, N—Me-Gly^11]MJ9] ({DOTA}-[X1][dF]Q[Bta]AV[Sar]H[Sta]L-NH2) — higher, 3.0 ± 0.2
- CC(C)C[C@H](NC(=O)C[C@H](O)[C@H](CC(C)C)NC(=O)[C@H](Cc1c[nH]cn1)NC(=O)CNC(=O)[C@@H](NC(=O)[C@H](CO)NC(=O)[C@H](Cc1csc2ccccc12)NC(=O)[C@H](CCC(N)=O)NC(=O)[C@@H](Cc1ccccc1)NC(=O)CN1CCC(NC(=O)CN2CCN(CC(=O)O)CCN(CC(=O)O)CCN(CC(=O)O)CC2)CC1)C(C)C)C(N)=O [DOTA-[Bta^8, Ser^9]MJ9] ({DOTA}-[X1][dF]Q[Bta]SVGH[Sta]L-NH2) — lower, 1.5 ± 0.2
- CCCC[C@H](NC(=O)[C@H](Cc1ccccc1)NC(=O)[C@H](Cc1c[nH]cn1)NC(=O)CCNC(=O)[C@@H](NC(=O)[C@H](C)NC(=O)[C@H](Cc1csc2ccccc12)NC(=O)[C@H](CCC(N)=O)NC(=O)[C@@H](Cc1ccccc1)NC(=O)CN1CCN(CC(=O)O)CCN(CC(=O)O)CCN(CC(=O)O)CC1)C(C)C)C(N)=O [DOTA-[Bta^8]UL] ({DOTA}-[dF]Q[Bta]AV[βAla]HF[Nle]-NH2) — lower, 0 ± 0
- CC(C)C[C@H](NC(=O)C[C@H](O)[C@H](CC(C)C)NC(=O)[C@H](Cc1c[nH]cn1)NC(=O)CNC(=O)[C@@H](NC(=O)[C@H](C)NC(=O)[C@H](Cc1c[nH]c2ccccc12)NC(=O)[C@H](CCC(N)=O)NC(=O)[C@@H](Cc1ccccc1)NC(=O)CN1CCC(NC(=O)CN2CCN(CC(=O)O)CCN(CC(=O)O)CCN(CC(=O)O)CC2)CC1)C1CCCCC1)C(N)=O [DOTA-[Chg^10]MJ9] ({DOTA}-[X1][dF]QWA[Chg]GH[Sta]L-NH2) — higher, 8.4 ± 0.9
- CC(C)C[C@H](NC(=O)C[C@H](O)[C@H](CC(C)C)NC(=O)[C@H](Cc1c[nH]cn1)NC(=O)CNC(=O)[C@@H](NC(=O)[C@H](C)NC(=O)[C@H](Cc1c[nH]c2ccccc12)NC(=O)[C@H](CCC(N)=O)NC(=O)[C@@H](Cc1ccccc1)NC(=O)CN1CCC(NC(=O)CN2CCN(CC(=O)O)CCN(CC(=O)O)CCN(CC(=O)O)CC2)CC1)C1CCCC1)C(N)=O [DOTA-[Cpg^10]MJ9] ({DOTA}-[X1][dF]QWA[Gly(cPent)]GH[Sta]L-NH2) — higher, 25.3 ± 1.4
- CC(C)C[C@H](NC(=O)C[C@H](O)[C@H](CC(C)C)NC(=O)[C@H](Cc1c[nH]cn1)NC(=O)CNC(=O)[C@@H](NC(=O)[C@H](C)NC(=O)[C@H](Cc1c[nH]c2ccccc12)NC(=O)[C@H](CCO)NC(=O)[C@@H](Cc1ccccc1)NC(=O)CN1CCC(NC(=O)CN2CCN(CC(=O)O)CCN(CC(=O)O)CCN(CC(=O)O)CC2)CC1)C1CCCCC1)C(N)=O [DOTA-[Hse^7, Chg^10]MJ9] ({DOTA}-[X1][dF][hSer]WA[Chg]GH[Sta]L-NH2) — higher, 33.4 ± 1.0
- CC(C)C[C@H](NC(=O)C[C@H](O)[C@H](CC(C)C)NC(=O)[C@H](Cc1c[nH]cn1)NC(=O)CNC(=O)[C@@H](NC(=O)[C@H](C)NC(=O)[C@H](Cc1c[nH]c2ccccc12)NC(=O)[C@H](CCO)NC(=O)[C@@H](Cc1ccccc1)NC(=O)CN1CCC(NC(=O)CN2CCN(CC(=O)O)CCN(CC(=O)O)CCN(CC(=O)O)CC2)CC1)C1CCCC1)C(N)=O [DOTA-[Hse^7, Cpg^10]MJ9] ({DOTA}-[X1][dF][hSer]WA[Gly(cPent)]GH[Sta]L-NH2) — higher, 28.1 ± 2.4
- CC(C)C[C@H](NC(=O)C[C@H](O)[C@H](CC(C)C)NC(=O)[C@H](Cc1c[nH]cn1)NC(=O)CN(C)C(=O)[C@@H](NC(=O)[C@H](C)NC(=O)[C@H](Cc1c[nH]c2ccccc12)NC(=O)[C@H](CCO)NC(=O)[C@@H](Cc1ccccc1)NC(=O)CN1CCC(NC(=O)CN2CCN(CC(=O)O)CCN(CC(=O)O)CCN(CC(=O)O)CC2)CC1)C(C)C)C(N)=O [DOTA-[Hse^7, N—Me-Gly^11]MJ9] ({DOTA}-[X1][dF][hSer]WAV[Sar]H[Sta]L-NH2) — higher, 13.8 ± 0.7
- CC(C)C[C@H](NC(=O)C[C@H](O)[C@H](CC(C)C)NC(=O)[C@H](Cc1c[nH]cn1)NC(=O)CNC(=O)[C@@H](NC(=O)[C@H](CO)NC(=O)[C@H](Cc1c[nH]c2ccccc12)NC(=O)[C@H](CCO)NC(=O)[C@@H](Cc1ccccc1)NC(=O)CN1CCC(NC(=O)CN2CCN(CC(=O)O)CCN(CC(=O)O)CCN(CC(=O)O)CC2)CC1)C(C)C)C(N)=O [DOTA-[Hse^7, Ser^9]MJ9] ({DOTA}-[X1][dF][hSer]WSVGH[Sta]L-NH2) — higher, 14.5 ± 0.8
- CCCC[C@H](NC(=O)[C@H](Cc1ccccc1)NC(=O)[C@H](Cc1c[nH]cn1)NC(=O)CCNC(=O)[C@@H](NC(=O)[C@H](C)NC(=O)[C@H](Cc1c[nH]c2ccccc12)NC(=O)[C@H](CCO)NC(=O)[C@@H](Cc1ccccc1)NC(=O)CN1CCN(CC(=O)O)CCN(CC(=O)O)CCN(CC(=O)O)CC1)C(C)C)C(N)=O [DOTA-[Hse^7]UL] ({DOTA}-[dF][hSer]WAV[βAla]HF[Nle]-NH2) — within error, 0.9 ± 0.9
- CC(C)C[C@H](NC(=O)C[C@H](O)[C@H](CC(C)C)NC(=O)[C@H](Cc1c[nH]cn1)NC(=O)CN(C)C(=O)[C@@H](NC(=O)[C@H](C)NC(=O)[C@H](Cc1c[nH]c2ccccc12)NC(=O)[C@H](CCC(N)=O)NC(=O)[C@@H](Cc1ccccc1)NC(=O)CN1CCC(NC(=O)CN2CCN(CC(=O)O)CCN(CC(=O)O)CCN(CC(=O)O)CC2)CC1)C(C)C)C(N)=O [DOTA-[N—Me-Gly^11]MJ9] — higher, 6.3 ± 0.6
- CC(C)C[C@H](NC(=O)C[C@H](O)[C@H](CC(C)C)NC(=O)[C@H](Cc1c[nH]cn1)NC(=O)CNC(=O)[C@@H](NC(=O)[C@H](CO)NC(=O)[C@H](Cc1c[nH]c2ccccc12)NC(=O)[C@H](CCC(N)=O)NC(=O)[C@@H](Cc1ccccc1)NC(=O)CN1CCC(NC(=O)CN2CCN(CC(=O)O)CCN(CC(=O)O)CCN(CC(=O)O)CC2)CC1)C(C)C)C(N)=O [DOTA-[Ser^9]MJ9] ({DOTA}-[X1][dF]QWSVGH[Sta]L-NH2) — higher, 9.8 ± 4.3
- CC(C)C[C@H](NC(=O)C[C@H](O)[C@H](CC(C)C)NC(=O)[C@H](Cc1c[nH]cn1)NC(=O)CNC(=O)[C@@H](NC(=O)[C@H](C)NC(=O)[C@H](Cc1csc2ccccc12)NC(=O)[C@H](CCC(N)=O)NC(=O)[C@@H](Cc1ccccc1)NC(=O)[C@H]1CC[C@H](CNC(=O)CN2CCN(CC(=O)O)CCN(CC(=O)O)CCN(CC(=O)O)CC2)CC1)C(C)C)C(N)=O [DOTA-[Txa^5, Bta^8]MJ9] ({DOTA-Trx}-[dF]Q[Bta]AVGH[Sta]L-NH2) — higher, 27.1 ± 2.1
- CC(C)C[C@H](NC(=O)C[C@H](O)[C@H](CC(C)C)NC(=O)[C@H](Cc1c[nH]cn1)NC(=O)CNC(=O)[C@@H](NC(=O)[C@H](C)NC(=O)[C@H](Cc1c[nH]c2ccccc12)NC(=O)[C@H](CCO)NC(=O)[C@@H](Cc1ccccc1)NC(=O)[C@H]1CC[C@H](CNC(=O)CN2CCN(CC(=O)O)CCN(CC(=O)O)CCN(CC(=O)O)CC2)CC1)C(C)C)C(N)=O [DOTA-[Txa^5, Hse^7]MJ9] ({DOTA-Trx}-[dF][hSer]WAVGH[Sta]L-NH2) — higher, 26.7 ± 1.3
- CC(C)C[C@H](NC(=O)C[C@H](O)[C@H](CC(C)C)NC(=O)[C@H](Cc1c[nH]cn1)NC(=O)CNC(=O)[C@@H](NC(=O)[C@H](C)NC(=O)[C@](C)(Cc1c[nH]c2ccccc12)NC(=O)[C@H](CCC(N)=O)NC(=O)[C@@H](Cc1ccccc1)NC(=O)[C@H]1CC[C@H](CNC(=O)CN2CCN(CC(=O)O)CCN(CC(=O)O)CCN(CC(=O)O)CC2)CC1)C(C)C)C(N)=O [DOTA-[Txa^5, α-Me-Trp^8]MJ9] — higher, 30.6 ± 0.8
- CC(C)C[C@H](NC(=O)C[C@H](O)[C@H](CC(C)C)NC(=O)[C@H](Cc1c[nH]cn1)NC(=O)CNC(=O)[C@@H](NC(=O)[C@H](C)NC(=O)[C@H](Cc1c[nH]c2ccccc12)NC(=O)[C@H](CCC(N)=O)NC(=O)[C@@H](Cc1ccccc1)NC(=O)[C@H]1CC[C@H](CNC(=O)CN2CCN(CC(=O)O)CCN(CC(=O)O)CCN(CC(=O)O)CC2)CC1)C(C)C)C(N)=O [DOTA-[Txa^5]MJ9] — higher, 24.8 ± 0.3
- CC(C)C[C@H](NC(=O)C[C@H](O)[C@H](CC(C)C)NC(=O)[C@H](Cc1c[nH]cn1)NC(=O)CNC(=O)[C@@H](NC(=O)[C@H](C)NC(=O)[C@H](Cc1csc2ccccc12)NC(=O)[C@H](CCC(N)=O)NC(=O)[C@@H](CCCNC(=N)N)NC(=O)CN1CCC(NC(=O)CN2CCN(CC(=O)O)CCN(CC(=O)O)CCN(CC(=O)O)CC2)CC1)C(C)C)C(N)=O [DOTA-[arg^6, Bta^8]MJ9] ({DOTA}-[X1][dR]Q[Bta]AVGH[Sta]L-NH2) — higher, 6.6 ± 2.0
